We go through 9 compounds from patent US20240124524A1, “Agonist of Tacr2” (University of Copenhagen, priority 2019, published 2024).

Where two headings read alike, the source gives them in different places.

In data set [1] the target is T1, Tacr2 (Homo sapiens, UniProt P21452).
T1 sequence (P21452 1-398): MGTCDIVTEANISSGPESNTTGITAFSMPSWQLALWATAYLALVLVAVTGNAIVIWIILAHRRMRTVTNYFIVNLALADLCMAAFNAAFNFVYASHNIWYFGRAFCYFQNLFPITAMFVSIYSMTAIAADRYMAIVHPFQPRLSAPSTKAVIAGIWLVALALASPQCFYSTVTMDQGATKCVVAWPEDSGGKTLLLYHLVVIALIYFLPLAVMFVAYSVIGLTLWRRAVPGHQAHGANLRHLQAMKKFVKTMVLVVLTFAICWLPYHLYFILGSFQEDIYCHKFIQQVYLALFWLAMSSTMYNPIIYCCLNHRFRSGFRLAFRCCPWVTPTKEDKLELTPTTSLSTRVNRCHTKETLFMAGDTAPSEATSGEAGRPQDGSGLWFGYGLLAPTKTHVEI
The note with it: Sp Hs; cited from earlier work.

For data set [2], the system named is Tacr2. Particulars: Sp Cp; cited from earlier work.
For data set [3], the target named is T2, Tacr2 (Rattus norvegicus, UniProt P16610).
T2 sequence (P16610 1-390): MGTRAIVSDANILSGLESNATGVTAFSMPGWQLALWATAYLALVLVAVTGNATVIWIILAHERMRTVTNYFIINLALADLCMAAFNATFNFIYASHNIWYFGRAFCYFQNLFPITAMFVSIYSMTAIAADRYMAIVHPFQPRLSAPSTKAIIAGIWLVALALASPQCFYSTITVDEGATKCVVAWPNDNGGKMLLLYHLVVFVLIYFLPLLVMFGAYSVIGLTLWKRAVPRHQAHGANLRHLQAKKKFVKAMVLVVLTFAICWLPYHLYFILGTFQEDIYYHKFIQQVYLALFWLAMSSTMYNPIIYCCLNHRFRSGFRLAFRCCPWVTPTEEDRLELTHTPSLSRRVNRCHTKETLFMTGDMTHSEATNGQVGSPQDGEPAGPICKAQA
Particulars: Sp Rn; cited from earlier work.

For data set [4], the target named is T2, Tacr2. Particulars: Sp Rn; cited from earlier work. The source holds these as a separate data set.
The subject of the next data set is human brown adipose. The note with it: cited from earlier work.
Data set [5] relates to diet induced obese (DIO) mice. Nature of the data set: Insulin tolerance test after Neurokinin A treatment. The note with it: vs control mice. The data set is classed as in vivo, mice (male C57Bl/6). On the procedure:
(§1) Oxygen consumption was measured every 5 minutes using the PhenoMaster. Data is representative of all days and show means±SEM of n=6. (b) Weight was measured every day throughout the experimental period. […] (c) Insulin tolerance test was performed in 3h fasted mice the day after treatment, and mice received 1 UI per kg lean body mass insulin intraperitoneal. […] (d) The three major adipose tissues were harvested weighed upon termination of experiment.
Mice were fasted for 3 hours prior to intra peritoneal insulin tolerance test (IPITT). Insulin (Actrapid, Novo Nordisk, DK) was dosed at 1 IU per kg lean body mass measured prior to treatment. Blood glucose was determined using glucometer from Roche. Lower blood glucose levels indicate greater insulin sensitivity.

Data set [6] deals with T3, mTacr2 (Mus musculus, UniProt P30549).
T3 construct: host or cells: HEK293
T3 sequence (P30549 1-384): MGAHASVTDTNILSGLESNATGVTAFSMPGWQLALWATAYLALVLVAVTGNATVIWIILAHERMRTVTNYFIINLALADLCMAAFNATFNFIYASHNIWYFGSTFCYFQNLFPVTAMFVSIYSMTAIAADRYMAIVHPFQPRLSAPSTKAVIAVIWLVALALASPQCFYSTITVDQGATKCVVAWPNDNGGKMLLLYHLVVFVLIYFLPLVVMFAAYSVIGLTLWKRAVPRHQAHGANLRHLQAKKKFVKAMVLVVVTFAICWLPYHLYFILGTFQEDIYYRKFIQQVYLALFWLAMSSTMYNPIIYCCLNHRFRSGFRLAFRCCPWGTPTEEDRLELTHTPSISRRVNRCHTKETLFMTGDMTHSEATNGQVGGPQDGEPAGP
Nature of the data set: IP3 assay in transfected HEK293 cells. The data set is classed as cell-based. As for the experimental part: (§2) HEK293 cells were transiently transfected with plasmid (pcDNA3.1, Genscript, NJ, USA) encoding human or mouse Tacr1-3 using Lipofectamine 2000 (Thermo Fisher, Denmark). After six hours of transfection, cells were loaded with 5 μCi myo-[3H]inositol (Perkin Elmer, Denmark) in full maintenance and cultured overnight. […] After treatment, cells were extracted with 10 mM formic acid and cell membranes were captured using poly-L-lysine coated SPA beads (Perkin Elmer, Denmark), and analyzed on Top Counter (Perkin Elmer, Denmark).
(§3) Data was analyzed using GraphPad Prism 7 (GraphPad, CA, USA),using 4 parametric logistic curve fitting. The data analysis included calculation of the top value, the bottom value, the hill slope as well as the log EC50.

Data set [7] relates to diet induced obese (DIO) mice. Nature of the data set: Neurokinin A treatment of diet induced obese mice. The data set is classed as in vivo, mice (male C57Bl/6). As for the experimental part: as §1
All animal experiments were performed according to Danish animal legislation, with ad libitum access to food and water and 12 hour light-dark cycle. Male C57Bl/6 mice were purchased from Janvier (Denmark) at four weeks of age and acclimatized for one week prior to experimentation. For high fat diet studies, male C57Bl/6 mice were housed at room temperature and fed a 60% high fat diet (Research diets, D12492, Denmark) for 18 weeks. After being fed this diet, the mice were highly obese, typically having a body weight in the range of 42 to 45 g. These mice may also be referred to as diet induced obese (DIO) mice. Mice were randomized according to their weight and body composition measured by MRI scan (EchoMRI, TX, USA) before single-housing for at least one week prior treatment. Oxygen consumption and […] (RER) were measured using PhenoMaster (TSE-Systems, Germany). Food consumption was manually assessed every second day.
For treatment, NKA was diluted in Gelofusine® (B. Braun, DK) prior to subcutaneous injection. Mice were treated twice daily for 9 days.

In another data set the test system is primary brown adipocytes. Nature of the data set: Oxygen consumption rate, Seahorse XF-96 Flux Analyzer. It is filed as cell-based. Particulars: 72 hours NKA treatment; primary brown adipocytes not transfected with Tacr2; FIG. 3b. As for the experimental part:
Primary brown pre-adipocytes were isolated from intrascapular brown fat pads by collagenase type 1 (Worthington, NJ, USA) digestion on horizontal shaking water bath at 37° C. for 50 minutes with vortexing every 10 minutes. Collagenase was diluted in KRB with free fatty acid free BSA (Sigma-Aldrich, Denmark) in a ratio of 1:10. The enzymatic reaction was stopped by addition of growth media, and cell suspension was pelleted, resuspended in growth media before straining through a 40 μm nylon mesh (VWR, Denmark) to avoid tissue clumps. Pre-adipocytes were expanded in DMEM (Gibco, Denmark) supplemented with 10% fetal bovine serum (Invitrogen, Denmark) and 1% penicillin and streptomycin (Lonza, Denmark) until confluency. The day after reach of confluency, primary brown pre-adipocytes were differentiated using a cocktail consisting of insulin (0.5 mg/mL), rosiglitazone (1 mM), dexamethasone (100 μM), IBMX (50 mM) and T3 (1 μM) for two days, thereafter cells were maintained in growth media containing insulin and T3 throughout the experimental period. Maintenance media was changed every second day. Cells were grown at 37° C. with 10% CO2.
(§4) Oxygen consumption was measured using the Seahorse XF-96 Flux Analyzer (Seahorse Bioscience, Denmark). […] All readings were performed over a two minutes period and mixing was performed for three minutes. […]

In data set [8] the target is T3, mTacr2. Nature of the data set: IP3 assay with 0.2% or 2% BSA (BSA binding). The data set is classed as cell-based. The note with it: for EC50: printed as log EC50 with negative sign. On the procedure: as §2, §3
The target of another data set is T4, mouse Tacr2 (Mus musculus, UniProt P30549).
T4 construct: host or cells: primary brown adipocytes
T4 sequence (P30549 1-384): T3 sequence (P30549 1-384)
Nature of the data set: IP3 assay in primary brown adipocytes transfected with Tacr2. The data set is classed as cell-based. Particulars: 24 hours NKA treatment; Tacr2 over-expressing primary brown adipocytes; FIG. 3a. On the procedure:
Primary brown pre-adipocytes were isolated from intrascapular brown fat pads by collagenase type 1 (Worthington, NJ, USA) digestion on horizontal shaking water bath at 37° C. for 50 minutes with vortexing every 10 minutes. Collagenase was diluted in KRB with free fatty acid free BSA (Sigma-Aldrich, Denmark) in a ratio of 1:10. The enzymatic reaction was stopped by addition of growth media, and cell suspension was pelleted, resuspended in growth media before straining through a 40 μm nylon mesh (VWR, Denmark) to avoid tissue clumps. Pre-adipocytes were expanded in DMEM (Gibco, Denmark) supplemented with 10% fetal bovine serum (Invitrogen, Denmark) and 1% penicillin and streptomycin (Lonza, Denmark) until confluency. […]
Primary brown adipocytes were loaded with 5 μCi myo-[3H]inositol (Perkin Elmer, Denmark) in full maintenance media at the day after electroporation, and incubated overnight. […] After treatment, cells were extracted with 10 mM formic acid and cell membranes were captured using poly-L-lysine coated SPA beads (Perkin Elmer, Denmark), and analyzed on Top Counter (Perkin Elmer, Denmark).
as §4

With [βAla8]neurokinin A-(4-10), the Affinity on Tacr2 [1] was 6.0 pKd.

On to `CSCC[C@H](NC(=O)[C@H](CC(C)C)NC(=O)CNC(=O)[C@@H](NC(=O)[C@H](Cc1ccccc1)NC(=O)[C@H](Cc1ccccc1)NC(=O)[C@H](CC(=O)O)NC(=O)[C@H](Cc1c[nH]cn1)NC(=O)[C@H](CCSC)NC(=O)[C@@H](N)CC(=O)O)C(C)C)C(N)=O` [NKB, neurokinin B], for which, on Tacr2 [1], the Affinity is on record as 5.0-7.7 pKi.

Take “neuropeptide K (DADSSIEKQVALLKALYGHGQISHKRHKTDSFVGLM; Neuropeptide K; UniProt P20366 72-107, looked up) [natural agonist of Tacr2 (Human, Rat)]”: the Affinity in the data set with Tacr2 [2] was 8.8 pEC50.

As for “hemokinin 1 (RSRTRQFYGLM; Hemokinin; UniProt Q99N14 56-66, looked up) [mammalian tachykinin (Mouse)]”, in the data set with Tacr2 [1], the Affinity is 6.3 pKi.

Regarding “Neurokinin A (3-10) [GR64349, Neurokinin A (3-10) [Lys3, Gly8-(R)-γ-Lactam-Leu9]]”, at Tacr2 [3], the Affinity is recorded as 8.4 pEC50.

In the case of “[Lys5,Me-Leu9, Nle10]NKA-(4-10) [[Lys5,Me-Leu9,Nle10]NKA-(4-10), DKFVGXJ, X = Me-Leu; J = Nle]”, in the data set with Tacr2 [4], the Affinity is given as 8.8-9.4 pIC50.

For `Nc1nc(CC(=O)Nc2ccc(CCNC[C@H](O)c3ccccc3)cc2)cs1` [Mirabegron], the “activation of human brown adipose” value in the data set on human brown adipose (proof-of-concept studies) is on record as “activate human brown adipose”. Besides, the “blood pressure and heart rate” value in the data set with human brown adipose (side effects) was “elevated blood pressure and heart rate”.

What is called EC50 is the concentration that produces a half-maximal response. Take `CSCC[C@H](NC(=O)[C@H](CC(C)C)NC(=O)CNC(=O)[C@@H](NC(=O)[C@H](Cc1ccccc1)NC(=O)[C@H](CO)NC(=O)[C@H](CC(=O)O)NC(=O)[C@@H](NC(=O)[C@H](CCCCN)NC(=O)[C@@H](N)Cc1cnc[nH]1)[C@@H](C)O)C(C)C)C(N)=O` [NKA, Neurokinin A]: in data set [5] (3 h fasted, 1 IU insulin per kg lean body mass i.p., day after treatment, FIG. 4c), the “blood glucose level after insulin treatment (ITT)” value is recorded as “significant lower blood glucose level after insulin treatment”. In [5], the “insulin sensitivity (ITT)” value is “higher insulin sensitivity” and the “return of blood glucose to basal levels after Cmin (ITT)” value is on record as “return to basal levels at a slower rate”. Also, the EC50 at mTacr2 [6] was 8.09 nM. Besides, in [7] (1 mg/kg NKA s.c. twice daily for 9 days), the metabolic parameters entry was “improved metabolic parameters”. For the same compound, the “calorie burning (oxygen consumption)” value in data set [7] (1 mg/kg NKA s.c. twice daily for 9 days, FIG. 4a) is reported as “increased calorie burning”. In addition, the body weight entry in data set [7] (1 mg/kg NKA s.c. twice daily for 9 days, FIG. 4b) is recorded as “significant reduction in body weight”. Also, in data set [7] (9 consecutive days of treatment, FIG. 4a), the “desensitization to NKA” value is given as “not accompanied by desensitization to NKA”. The adipose tissue weight entry in [7] (tissues harvested upon termination, FIG. 4d) was “reduction of white adipose tissue and not brown fat”. For the same compound, the “oxygen consumption rate (OCR)” value in the data set on primary brown adipocytes is “increases oxygen consumption rate (OCR)”. At mTacr2 [8] (LogEC50, mTacr2, 0.2% BSA), this compound showed a half-maximal effective concentration (EC50) of 3.54 nM. Besides, the EC50 on mTacr2 [8] (LogEC50, mTacr2, 2% BSA) was 12.3 nM. In addition, on mTacr2 [8] (from Tacr2 activation at 0.2% vs 2% BSA), the BSA binding affinity entry is reported as “low BSA binding affinity”. At mTacr2 [8] (mTacr2, 0.2% BSA), this compound yielded a Hill-Slope of 1.082 and a Top of 1788. On mTacr2 [8] (mTacr2, 2% BSA), this compound gave a Bottom of 111.3, a Hill-Slope of 0.8378 and a Top of 1719. Moreover, the IP3 levels entry at mouse Tacr2 is “increases IP3 levels”.

Turning to neuropeptide γ, the Affinity in the data set on Tacr2 [2] is 9.5 pEC50.
